# Where a SMILES comes first, the peptide text is derived from it.
# Target: T1, human TNFα (Homo sapiens, UniProt P01375)
# T1 construct: purchased Biosource, Camarillo, Calif
# Experiment: p55 Receptor/IgG Fusion Protein Binding Assay (inhibition of TNFα capture by p55-Ig coated plate)
# Conditions: peptide 1 mM; TNFα 25 ng/ml; read-out: inhibition of binding of TNFα to p55TNFr-IgG chimeric construct
# Experimental: This assay was designed to identify peptides which bind to human TNFα and thereby prevent the capture of the TNFα by a microtiter plate coated with p55-Ig fusion protein. A constant concentration of human TNFα is preincubated with the test peptide and then incubated on the p55-Ig coated microtiter wells. Bound TNFα is detected using a specific antisera and an alkaline phosphatase-conjugated probe.
# A 96-well, U-bottom polyvinylchloride microtiter plate was coated with 50 μl/well of p55-Ig fusion protein at 5 μg/ml in 0.01M sodium phosphate, 0.15M sodium chloride (PBS) by incubation overnight at 4° C. or 2 hours at 37° C. The fusion protein, which consists of a p55 TNF receptor protein portion and an IgG portion, can be produced as disclosed in U.S. application Ser. No. 08/010,406 filed Jan. 29, 1993 which is incorporated herein by reference. The plate was washed three times with 0.05% Tween-20 in PBS, then blocked, by adding 150 μl/well of assay buffer (10 mM N-2-hydroxyethylpiperazine-N'-[…] (HEPES) pH 7.2, containing 0.1% porcine gelatin, 0.1% Tween-80, and 0.01% sodium azide) and continuing incubation for 1 hour at 37° C. or at 4° C. for 1-7 days.
# Lyophilized peptides to be tested were weighed in tared 12×75 mm polystyrene tubes and reconstituted to a concentration of 1.2 mM with assay buffer. Each suspension was sonicated in a water bath for 1-5 minutes and vortexed 15-30 seconds to disperse large particles. Serial dilutions of each peptide suspension were prepared using assay buffer in a 96-well polystyrene microtiter plate. Additional wells received Fab fragment of the mouse/human monoclonal anti-human TNFα antibody cA2 (positive control) or assay buffer (negative control). […] The polystyrene dilution plate was then sealed and incubated 1 hour at room temperature on an orbital mixer set at moderate speed.
# Following the sample preincubation, blocker was discarded from the p55-Ig coated plate and blotted dry. Aliquots (50 μl) of each peptide or control were transferred into duplicate wells on the p55-Ig coated plate which was then sealed and incubated i hour at 37° C. Duplicate wells containing only assay buffer were included as a plate blank. After incubation the p55-Ig plate was washed three times with 0.05% Tween-20 in PBS.
# To detect TNFα captured by the p55-Ig plate, all wells were incubated in succession with polyclonal rabbit anti-human TNFα (Genzyme, Boston, Mass.; 1:500 in assay buffer, 50 μl/well), biotinylated goat anti-rabbit Ig (H&L) (Vector Laboratories, Burlingame, Calif.; 1 μg/ml in assay buffer, 50 μl/well) and streptavidin-alkaline phosphatase conjugate (Pierce, Rockford, Ill.; 1 μg/ml in assay buffer, 50 μl/well). All incubations were for 1 hour at 37° C. and after each incubation the plate was washed three times with 0.05% Tween-20 in PBS. Fifty microliters of alkaline phosphatase substrate solution (alkaline buffer (Sigma, St. Louis, Mo.) diluted 1:500 in deionized water plus one 5 mg tablet of p-nitrophenyl phosphate (Sigma, St. Louis, Mo.) per 5 ml of diluted buffer) was added to all wells and incubation continued for 20 minutes at room temperature. Color development was stopped by adding to all wells 50 μl of 3N sodium hydroxide. The optical density (OD) at 405 nm was measured on a microtiter plate reader (Molecular Devices Vmax plate reader), with the plate blank wells subtracted as background. The activity of each peptide was then expressed as the percent inhibition of TNFα capture by the p55-Ig plate, relative to the amount of TNFα captured in wells containing only assay buffer (negative control), as follows: % inhibition=100-((mean OD peptide/mean OD negative control)×100).
# The inhibition of binding of TNFα to p55TNFr-IgG chimeric construct was performed as described above using several embodiments of the invention. The peptides were tested at a concentration of 1 mM.
# T1 sequence (P01375 77-233 limits assumed): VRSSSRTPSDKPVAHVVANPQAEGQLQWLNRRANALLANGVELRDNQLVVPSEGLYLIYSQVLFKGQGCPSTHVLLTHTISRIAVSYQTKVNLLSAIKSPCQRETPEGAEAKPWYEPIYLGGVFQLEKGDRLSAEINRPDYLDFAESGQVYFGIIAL
row,inhibition at 1000 µM [%],SMILES
1,40,"CC(=O)N[C@@H](CC(C)C)C(=O)N[C@@H](Cc1ccccc1)C(=O)N[C@@H](CCC(N)=O)C(=O)N[C@@H](C)C(=O)N[C@@H](Cc1ccccc1)C(=O)N[C@@H](CC(N)=O)C(=O)N[C@@H](C)C(=O)N[C@@H](CO)C(=O)N[C@@H](CC(C)C)C(=O)N[C@@H](C)C(=O)N[C@@H](CC(C)C)C(=O)N[C@@H](CC(N)=O)C(=O)NCC(=O)N[C@H](C(=O)N[C@H](C(N)=O)C(C)C)[C@@H](C)O [SEQ ID NO:12, Acetyl-leucyl-phenylalanyl-glutaminyl-alanyl-phenylalanyl-asparaginyl-alanyl-seryl-leucyl-alanyl-leucyl-asparaginyl-glycyl-threonyl-valine Amide] (Ac-LFQAFNASLALNGTV-NH2)"
2,34,"CC(=O)N[C@@H](C)C(=O)N[C@@H](Cc1ccccc1)C(=O)N[C@@H](CC(N)=O)C(=O)N[C@@H](C)C(=O)N[C@@H](CO)C(=O)N[C@@H](CC(C)C)C(=O)N[C@@H](C)C(=O)N[C@@H](CC(C)C)C(=O)N[C@@H](CC(N)=O)C(=O)NCC(=O)N[C@H](C(=O)N[C@H](C(=O)N[C@@H](Cc1c[nH]cn1)C(=O)N[C@@H](CC(C)C)C(=O)N[C@@H](CO)C(N)=O)C(C)C)[C@@H](C)O [SEQ ID NO:13, Acetyl-alanyl-phenylalanyl-asparaginyl-alanyl-seryl-leucyl-alanyl-leucyl-asparaginyl-glycyl-threonyl-valyl-histidyl-leucyl-serine Amide] (Ac-AFNASLALNGTVHLS-NH2)"
3,29,CC(C)C[C@H](NC(=O)[C@H](C)NC(=O)[C@H](CC(C)C)NC(=O)[C@H](CO)NC(=O)[C@H](C)NC(=O)[C@H](CC(N)=O)NC(=O)[C@H](Cc1ccccc1)NC(=O)[C@H](C)N)C(=O)N[C@@H](CC(N)=O)C(=O)NCC(=O)N[C@H](C(=O)N[C@H](C(=O)N[C@@H](Cc1c[nH]cn1)C(=O)N[C@@H](CC(C)C)C(=O)N[C@@H](CO)C(N)=O)C(C)C)[C@@H](C)O [SEQ ID NO:14] (H-AFNASLALNGTVHLS-NH2)
4,48,"CC(C)C[C@H](NC(=O)[C@H](Cc1ccccc1)NC(=O)[C@H](Cc1ccccc1)NC(=O)CNC(=O)[C@H](C)NC(=O)[C@H](Cc1c[nH]cn1)NC(=O)[C@H](C)NC(=O)[C@@H](NC(=O)[C@H](C)NC(=O)[C@@H](NC(=O)[C@@H](NC(=O)[C@H](CC(N)=O)NC(=O)[C@H](CCC(N)=O)NC(=O)[C@H](CCCCN)NC(=O)[C@H](CCC(=O)O)NC(=O)[C@@H](N)CCC(N)=O)[C@@H](C)O)C(C)C)[C@@H](C)O)C(=O)N[C@@H](CCCNC(=N)N)C(=O)N[C@@H](CCC(=O)O)C(=O)N[C@@H](CC(N)=O)C(=O)N[C@@H](CCC(=O)O)C(N)=O [SEQ ID NO:15, Glutaminyl-glutamyl-lysyl-glutaminyl-asparaginyl-threonyl-valyl-alanyl-threonyl-alanyl-histidyl-alanyl-glycyl-phenylalanyl-phenylalanyl-leucyl-arginyl-glutamyl-asparaginyl-glutamic Acid Amide] (H-QEKQNTVATAHAGFFLRENE-NH2)"
5,48,"CC(C)C[C@H](NC(=O)[C@H](Cc1ccccc1)NC(=O)[C@H](Cc1ccccc1)NC(=O)CNC(=O)[C@H](C)NC(=O)[C@H](Cc1c[nH]cn1)NC(=O)[C@H](C)NC(=O)[C@@H](NC(=O)[C@H](C)NC(=O)[C@@H](NC(=O)[C@@H](NC(=O)[C@H](CC(N)=O)NC(=O)[C@H](CCC(N)=O)NC(=O)[C@@H](N)CCCCN)[C@@H](C)O)C(C)C)[C@@H](C)O)C(=O)N[C@@H](CCCNC(=N)N)C(N)=O [SEQ ID NO:16, Lysyl-glutaminyl-asparaginyl-threonyl-valyl-alanyl-threonyl-alanyl-histidyl-alanyl-glycyl-phenylalanyl-phenylalanyl-leucyl-arginine Amide] (H-KQNTVATAHAGFFLR-NH2)"
6,59,CC(C)C[C@H](NC(=O)[C@H](Cc1ccccc1)NC(=O)[C@H](Cc1ccccc1)NC(=O)CNC(=O)[C@H](C)NC(=O)[C@H](Cc1c[nH]cn1)NC(=O)[C@H](C)NC(=O)[C@@H](NC(=O)[C@H](C)NC(=O)[C@@H](NC(=O)[C@@H](N)[C@@H](C)O)C(C)C)[C@@H](C)O)C(=O)N[C@@H](CCCNC(=N)N)C(=O)N[C@@H](CCC(=O)O)C(=O)N[C@@H](CC(N)=O)C(=O)N[C@@H](CCC(=O)O)C(N)=O [SEQ ID NO:17] (H-TVATAHAGFFLRENE-NH2)
7,68,CC(C)C[C@H](NC(=O)[C@H](Cc1ccccc1)NC(=O)[C@H](Cc1ccccc1)NC(=O)CNC(=O)[C@H](C)NC(=O)[C@H](Cc1c[nH]cn1)NC(=O)[C@H](C)NC(=O)[C@@H](N)[C@@H](C)O)C(=O)N[C@@H](CCCNC(=N)N)C(=O)N[C@@H](CCC(=O)O)C(=O)N[C@@H](CC(N)=O)C(=O)N[C@@H](CCC(=O)O)C(=O)N[C@@H](C)C(=O)N[C@H](C(=O)N[C@@H](CO)C(N)=O)C(C)C [SEQ ID NO:18] (H-TAHAGFFLRENEAVS-NH2)
8,53,CC(C)C[C@H](NC(=O)[C@H](Cc1ccccc1)NC(=O)[C@H](Cc1ccccc1)NC(=O)CNC(=O)[C@H](C)N)C(=O)N[C@@H](CCCNC(=N)N)C(=O)N[C@@H](CCC(=O)O)C(=O)N[C@@H](CC(N)=O)C(=O)N[C@@H](CCC(=O)O)C(=O)N[C@@H](C)C(=O)N[C@H](C(=O)N[C@@H](CO)C(=O)N[C@@H](C)C(=O)N[C@@H](CO)C(=O)N[C@@H](CC(N)=O)C(N)=O)C(C)C [SEQ ID NO:19] (H-AGFFLRENEAVSASN-NH2)
9,26,"CC(C)C[C@H](NC(=O)[C@H](CCCCN)NC(=O)[C@@H](NC(=O)[C@H](CS)NC(=O)[C@H](CCC(=O)O)NC(=O)[C@H](CC(C)C)NC(=O)[C@H](CO)NC(=O)[C@H](CCCCN)NC(=O)[C@H](CCCCN)NC(=O)[C@H](CS)NC(=O)[C@H](CC(N)=O)NC(=O)[C@H](CO)NC(=O)[C@H](CS)NC(=O)[C@H](CO)NC(=O)[C@@H](NC(=O)[C@H](CS)NC(=O)[C@H](CCC(=O)O)NC(=O)[C@H](CC(N)=O)NC(=O)[C@H](CCC(=O)O)NC(=O)[C@@H](N)CCCNC(=N)N)C(C)C)[C@@H](C)O)C(=O)O [SEQ ID NO:20, Arginyl-glutamyl-asparaginyl-glutamyl-cysteinyl-valyl-seryl-cysteinyl-seryl-asparaginyl-cysteinyl-lysyl-lysyl-seryl-leucyl-glutamyl-cysteinyl-threonyl-lysyl-leucine] (H-RENECVSCSNCKKSLECTKL-OH)"
10,50,"CC[C@H](C)[C@H](NC(=O)[C@H](CCC(N)=O)NC(=O)[C@@H]1CCCN1C(=O)[C@H](CC(C)C)NC(=O)[C@H](C)NC(=O)[C@H](CC(C)C)NC(=O)[C@H](CCCCN)NC(=O)[C@@H](NC(=O)[C@H](C)NC(=O)[C@H](CCC(=O)O)NC(=O)[C@H](CC(C)C)NC(=O)[C@@H](N)CO)[C@@H](C)O)C(=O)N[C@@H](CCC(=O)O)C(=O)N[C@@H](CC(N)=O)C(=O)N[C@H](C(N)=O)C(C)C [SEQ ID NO:21, Seryl-leucyl-glutamyl-alanyl-threonyl-lysyl-leucyl-alanyl-leucyl-prolyl-glutaminyl-isoleucyl-glutamyl-asparaginyl-valine Amide] (H-SLEATKLALPQIENV-NH2)"
11,34,"CC[C@H](C)[C@H](NC(=O)[C@H](CCC(N)=O)NC(=O)[C@@H]1CCCN1C(=O)[C@H](CC(C)C)NC(=O)[C@H](C)NC(=O)[C@@H](N)CC(C)C)C(=O)N[C@@H](CCC(=O)O)C(=O)N[C@@H](CC(N)=O)C(=O)N[C@H](C(=O)N[C@@H](CCCCN)C(=O)NCC(=O)N[C@H](C(=O)N[C@@H](CCC(=O)O)C(=O)N[C@@H](CC(=O)O)C(=O)N[C@@H](CO)C(N)=O)[C@@H](C)O)C(C)C [SEQ ID NO:22, Leucyl-alanyl-leucyl-prolyl-glutaminyl-isoleucyl-glutamyl-asparaginyl-valyl-lysyl-glycyl-threonyl-glutamyl-aspartyl-serine Amide] (H-LALPQIENVKGTEDS-NH2)"

# — patent US5486595A, “Tumor necrosis factor inhibitors” (Centecor, Inc., priority 1994, dated 1996)
